Assay results published in publication PMC10606834, “Is the Neuropeptide PEN a Ligand of GPR83?” (International Journal of Molecular Sciences, 2023).

Tests used:
[1] = test system: GPR83 and deletion variant GPR83del (HEK293 clones; wild-type HEK293 as comparison); assay: Intracellular calcium mobilization, HEK293 cells; type: cell-based, human; settings: 10 µM PEN; co mix = 100 µM carbachol, 100 µM ATP, 40 µM dimaprit; 50 µM ionomycin; HEK293 wild-type, GPR83 or GPR83del clones; Fluo4-AM fluorescence, compared with buffer; duplicate, repeated at least two times
Method: (§1) As activation of many GPCRs is coupled to calcium mobilization from intracellular stores, GPR83 was probed for ligand-dependent calcium release. Wild-type HEK293 cells and HEK293 clones overexpressing either full-length GPR83 or the N-terminal deletion variant GPR83del were exposed to buffer or one of two independent synthesis batches (PEN #1 and PEN #2) of the neuropeptide PEN, while calcium indicator fluorescence was recorded. […] Calcium release was also tested in a second cell line, osteosarcoma U2OS cells, using various stably expressing clones. […] Therefore, HEK293 cells transfected with Gα16 were employed to investigate a potential GPR83-dependent calcium mobilization with PEN. […] A number of GPCRs show ligand-independent basal calcium activity. However, in an experiment comparing basal calcium levels in wild-type HEK293 cells and in HEK293 clones overexpressing four different variants of GPR83, they were not found to be different (Figure 2D).
(§2) Figure 2 Investigation of ligand-dependent and ligand-independent intracellular calcium mobilization. (A) Wild-type HEK293 cells and HEK293 cell clones overexpressing either GPR83 or the deletion variant GPR83del were incubated with either buffer or the specified ligand (10 µM PEN or co mix = 100 µM carbachol, 100 µM ATP, 40 µM dimaprit, or 50 µM ionomycin). (B) Calcium indicator fluorescence intensity traces over 60 s of various U2OS cell clones overexpressing untagged or HA-tagged GPR83 or the deletion variant GPR83del before and after the addition of buffer or ligand (co mix as in (A) or 50 µM ionomycin or 10 µM PEN). […]
(§3) Cells were seeded at 50,000 cells/well in a poly-D-lysine coated 96-well black well/clear bottom plate (BD Falcon, Franklin Lakes, NJ, USA) and cultured overnight. […] Fluorescence was recorded with the fluorescence imaging plate reader CellLux (Perkin Elmer, Waltham, MA, USA) simultaneously in all wells at an excitation wavelength of 488 nm and emission wavelength of 510 nm in 1.5 s intervals over a period of 4 min. Fluorescence data were generated in duplicate, and experiments were repeated at least two times.

[2] = test system: GPR83 and GPR83del with Gα16 (HEK293); assay: Intracellular calcium mobilization, Gα16-transfected HEK293 cells; type: cell-based, human; settings: 10 µM PEN, 100 µM carbachol, 100 µM ATP, Fluo4-AM fluorescence, duplicate, repeated at least two times
Method: as §1, §2, §3

Row | SMILES | calcium signal [1] | calcium signal [2]
1 | C[C@H](CCC(=O)O)C[C@H](C)C[C@H](C)C(=O)/C=C(\O)[C@H](C)C[C@H](C)C/C=C/[C@@H](C)[C@@H](O)[C@@H](C)[C@@H](O)C[C@@H]1CC[C@@](C)([C@H]2CC[C@@](C)([C@@H](C)O)O2)O1 [ionomycin, reference compound] | clear calcium signal above buffer background | –
2 | Nc1ncnc2c1ncn2[C@@H]1O[C@H](COP(=O)(O)OP(=O)(O)OP(=O)(O)O)[C@@H](O)[C@H]1O [ATP] | – | strongly enhanced the calcium signal
3 | C[N+](C)(C)CCOC(N)=O [carbachol] | – | strongly enhanced the calcium signal
